In patent publication US20230089867A1, “CYCLIC PENTAMER COMPOUNDS AS PROPROTEIN CONVERTASE SUBTILISIN/KEXIN TYPE 9 (PCSK9) INHIBITORS FOR THE TREATMENT OF METABOLIC DISORDER” (Novartis AG, priority 2018, published 2023):
pIC50: −log10 of the molar value.

Target: human PCSK9 (Homo sapiens, UniProt Q8NBP7)
Assay: PCSK9 ligand binding TR-FRET assay (interference with binding of human PCSK9 to human LDLR)
Details: for Max % inhibition: PCSK9 FRET assay, efficacy (Amax), 100% = 1 uM unlabeled human PCSK9, 0% = DMSO; for pIC50: TR-FRET, human PCSK9 Alexa Fluor 647 / human LDLR extracellular domain-Europium Kryptate, read-out: PCSK9 FRET Assay IC50
Protocol: The PCSK9 binding of the compounds of the disclosure were measured using a time resolved fluorescence resonance energy transfer (TR-FRET) assay. This time resolved fluorescence resonance energy transfer (TR-FRET) assay measures the ability of a compound of the present disclosure to interfere with the binding of human PCSK9 to human LDLR, providing measures of both potency (IC50) and efficacy (Amax).
These solutions were pipetted into columns 1 and 11 of the compound plate. Threefold serial dilutions were generated in columns 2-10 and 12-20 of the compound plate by transferring 10 uL into 20 uL of DMSO. Columns 21 and 22 of the compound plate were negative controls containing DMSO alone.
An intermediate plate was generated in a Greiner V bottom plate by transferring 8 uL from each well of the master plate into a corresponding well containing 92 uL of assay buffer and mixing thoroughly.
A Proxi plate-low volume assay plate was used for the assay. […] For the positive control wells in columns 23 and 24 of the plate, 5 uL of unlabeled human PCSK9 was added at 4 uM in assay buffer containing 8% DMSO. Following a 30 minute incubation, 5 uL of 4 nM Human LDLR extracellular domain-Europium Kryptate was added and the mixture was incubated for an additional 2 hours.
The FRET ratio (FRET/Europium) was used for calculations.
Data is expressed as percent inhibition: (value−0%)/(100%−0%).

Chain of human PCSK9 (Q8NBP7 153-692): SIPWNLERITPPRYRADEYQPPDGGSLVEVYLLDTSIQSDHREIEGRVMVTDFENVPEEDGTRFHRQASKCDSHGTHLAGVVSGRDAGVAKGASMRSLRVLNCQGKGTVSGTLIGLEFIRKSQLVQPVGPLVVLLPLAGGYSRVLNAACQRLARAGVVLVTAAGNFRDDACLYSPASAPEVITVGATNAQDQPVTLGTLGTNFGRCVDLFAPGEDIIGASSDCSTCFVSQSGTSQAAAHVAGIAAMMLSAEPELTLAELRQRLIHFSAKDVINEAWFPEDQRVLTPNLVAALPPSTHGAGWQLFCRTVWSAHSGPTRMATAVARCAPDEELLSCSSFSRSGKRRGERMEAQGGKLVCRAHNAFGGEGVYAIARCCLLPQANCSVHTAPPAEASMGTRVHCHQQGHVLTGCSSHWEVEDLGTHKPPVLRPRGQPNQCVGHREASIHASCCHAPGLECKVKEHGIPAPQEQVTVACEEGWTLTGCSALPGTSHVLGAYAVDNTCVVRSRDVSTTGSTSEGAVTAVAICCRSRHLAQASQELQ
Chain of human PCSK9 (Q8NBP7 31-152 partner limits assumed): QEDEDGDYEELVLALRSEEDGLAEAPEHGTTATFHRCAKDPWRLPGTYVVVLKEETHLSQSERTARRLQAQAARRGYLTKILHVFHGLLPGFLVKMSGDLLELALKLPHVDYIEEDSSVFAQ

Row | SMILES | Max % inhibition | pIC50
1 | COC[C@@H]1NC(=O)[C@H](C)N(Cc2ccc(Cl)cc2Oc2ccc(-c3cnc(CN(C)C)n3C)cc2)C(=O)C[C@@H](Cc2cccc(OC(F)F)c2)C(=O)N(C)[C@@H](C)CNC(=O)C[C@H](Cc2ccc(Cl)cc2)N(C)C1=O [Compound 238, (2S,5S,8S,13S,16R)-1-(4-chloro-2-(4-(2-((dimethylamino)methyl)-1-methyl-1H-imidazol-5-yl)phenoxy)benzyl)-8-(4-chlorobenzyl)-16-(3-(difluoromethoxy)benzyl)-5-(methoxymethyl)-2,7,13,14-tetramethyl-1,4,7,11,14-pentaazacyclooctadecane-3,6,10,15,18-pentaone] | 104.90% | 8.60
2 | COC[C@@H]1NC(=O)[C@H](C)N(Cc2ccc(Cl)cc2Oc2ccc(-c3cnc(CN4CCCC4)n3C)cc2)C(=O)C[C@@H](Cc2ccccc2)C(=O)N(C)[C@@H](CCCCN(C)C)CNC(=O)C[C@H](Cc2ccc(Cl)cc2)N(C)C1=O.Cl [Compound 43, (2S,5S,8S,13S,16R)-16-benzyl-1-(4-chloro-2-(4-(1-methyl-2-(pyrrolidin-1-ylmethyl)-1H-imidazol-5-yl)phenoxy)benzyl)-8-(4-chlorobenzyl)-13-(4-(dimethylamino)butyl)-5-(methoxymethyl)-2,7,14-trimethyl-1,4,7,11,14-pentaazacyclooctadecane-3,6,10,15,18-pentaone hydrochloride] | 94.38% | 8.74
3 | COC[C@@H]1NC(=O)[C@H](CCC(=O)OC(C)(C)C)N(Cc2ccc(Cl)cc2Oc2ccc(-c3cnc(CN(C)C)n3C)cc2)C(=O)C[C@@H](Cc2ccccc2)C(=O)N(C)[C@@H](C)CNC(=O)C[C@H](Cc2ccc(Cl)cc2)N(C)C1=O [Compound 10, tert-butyl 3-((2S,5S,8S,13S,16R)-16-benzyl-1-(4-chloro-2-(4-(2-((dimethylamino)methyl)-1-methyl-1H-imidazol-5-yl)phenoxy)benzyl)-8-(4-chlorobenzyl)-5-(methoxymethyl)-7,13,14-trimethyl-3,6,10,15,18-pentaoxo-1,4,7,11,14-pentaazacyclooctadecan-2-yl)propanoate] | 101.88% | 8.37
4 | COC[C@@H]1NC(=O)[C@H](CCCNC(=O)OC(C)(C)C)N(Cc2ccc(Cl)cc2Oc2ccc(-c3cnc(CN(C)C)n3C)cc2)C(=O)C[C@@H](Cc2ccccc2)C(=O)N(C)[C@@H](C)CNC(=O)C[C@H](Cc2ccc(Cl)cc2)N(C)C1=O [Compound 4, tert-butyl (3-((2S,5S,8S,13S,16R)-16-benzyl-1-(4-chloro-2-(4-(2-((dimethylamino)methyl)-1-methyl-1H-imidazol-5-yl)phenoxy)benzyl)-8-(4-chlorobenzyl)-5-(methoxymethyl)-7,13,14-trimethyl-3,6,10,15,18-pentaoxo-1,4,7,11,14-pentaazacyclooctadecan-2-yl)propyl)carbamate] | 97.50% | 8.54
5 | COC[C@@H]1NC(=O)[C@H](CC(=O)N2CCOCC2)N(Cc2ccc(Cl)cc2Oc2ccc(-c3cnc(CN(C)C)n3C)cc2)C(=O)C[C@@H](Cc2ccccc2)C(=O)N(C)[C@@H](C)CNC(=O)C[C@H](Cc2ccc(Cl)cc2)N(C)C1=O [Compound 38, (2S,5S,8S,13S,16R)-16-benzyl-1-(4-chloro-2-(4-(2-((dimethylamino)methyl)-1-methyl-1H-imidazol-5-yl)phenoxy)benzyl)-8-(4-chlorobenzyl)-5-(methoxymethyl)-7,13,14-trimethyl-2-(2-morpholino-2-oxoethyl)-1,4,7,11,14-pentaazacyclooctadecane-3,6,10,15,18-pentaone] | 101.48% | 8.68
6 | COC[C@@H]1NC(=O)[C@H](C)N(Cc2ccc(C(F)(F)F)cc2Oc2ccc(-c3cnc(CN4CCCC4)n3C)cc2)C(=O)C[C@@H](Cc2ccccc2)C(=O)N(C)[C@@H](C)CNC(=O)C[C@H](Cc2ccc(Cl)cc2)N(C)C1=O [Compound 80, (2S,5S,8S,13S,16R)-16-benzyl-8-(4-chlorobenzyl)-5-(methoxymethyl)-2,7,13,14-tetramethyl-1-(2-(4-(1-methyl-2-(pyrrolidin-1-ylmethyl)-1H-imidazol-5-yl)phenoxy)-4-(trifluoromethyl)benzyl)-1,4,7,11,14-pentaazacyclooctadecane-3,6,10,15,18-pentaone] | 103.62% | 8.20

Further compounds by rising pIC50, results first:

Row | Max % inhibition | pIC50 | SMILES
7 | 60.93% | 7.55 | C[C@H]1CNC(=O)C[C@H](Cc2ccc(Cl)cc2)N(C)C(=O)[C@H](CO)NC(=O)[C@H](C)N(Cc2ccc(Cl)cc2Oc2ccc3c(c2)C(=O)N(C2CCNCC2)C3)C(=O)C[C@@H](Cc2ccccc2)C(=O)N1C [Compound 125, (2S,5S,8S,13S,16R)-16-benzyl-1-(4-chloro-2-((3-oxo-2-(piperidin-4-yl)isoindolin-5-yl)oxy)benzyl)-8-(4-chlorobenzyl)-5-(hydroxymethyl)-2,7,13,14-tetramethyl-1,4,7,11,14-pentaazacyclooctadecane-3,6,10,15,18-pentaone]
8 | 81.31% | 7.95 | COC[C@@H]1NC(=O)[C@H](C)N(Cc2ccc(Cl)cc2Oc2ccc(-c3cnc(CN(C)C)n3C)cc2)C(=O)C[C@@H](CC2CCCCC2)C(=O)N(C)[C@@H](C)CNC(=O)C[C@H](Cc2ccc(Cl)cc2)N(C)C1=O [Compound 183, (2S,5S,8S,13S,16R)-1-(4-chloro-2-(4-(2-((dimethylamino)methyl)-1-methyl-1H-imidazol-5-yl)phenoxy)benzyl)-8-(4-chlorobenzyl)-16-(cyclohexylmethyl)-5-(methoxymethyl)-2,7,13,14-tetramethyl-1,4,7,11,14-pentaazacyclooctadecane-3,6,10,15,18-pentaone]
9 | 107.53% | 8.01 | COC[C@@H]1NC(=O)[C@H](C)N(Cc2ccc(Cl)cc2Oc2ccc(-c3cnc(CN(C)C)n3C)cc2)C(=O)C[C@@H](Cc2ccccc2)C(=O)N(C)[C@@H](C(=O)O)CNC(=O)C[C@H](Cc2ccc(Cl)cc2)N(C)C1=O [Compound 177, (2S,5S,8S,13R,16R)-16-benzyl-1-(4-chloro-2-(4-(2-((dimethylamino)methyl)-1-methyl-1H-imidazol-5-yl)phenoxy)benzyl)-8-(4-chlorobenzyl)-5-(methoxymethyl)-2,7,14-trimethyl-3,6,10,15,18-pentaoxo-1,4,7,11,14-pentaazacyclooctadecane-13-carboxylic acid]
10 | 65.69% | 8.24 | C[C@H]1CNC(=O)C[C@H](Cc2ccc(Cl)cc2)N(C)C(=O)[C@H](CO)NC(=O)[C@H](C)N(Cc2ccc(Cl)cc2Oc2ccc3c(c2)C(=O)N(C2CCN(CC4CC4)CC2)C3)C(=O)C[C@@H](Cc2ccccc2)C(=O)N1C [Compound 139, (2S,5S,8S,13S,16R)-16-benzyl-1-(4-chloro-2-((2-(1-(cyclopropylmethyl)piperidin-4-yl)-3-oxoisoindolin-5-yl)oxy)benzyl)-8-(4-chlorobenzyl)-5-(hydroxymethyl)-2,7,13,14-tetramethyl-1,4,7,11,14-pentaazacyclooctadecane-3,6,10,15,18-pentaone]
11 | 96.17% | 8.24 | COC[C@@H]1NC(=O)[C@H](C)N(Cc2cccc(F)c2Oc2ccc(-c3cnc(CN(C)C)n3C)cc2)C(=O)C[C@@H](Cc2ccccc2)C(=O)N(C)[C@@H](C)CNC(=O)C[C@H](Cc2ccc(Cl)cc2)N(C)C1=O [Compound 232, (2S,5S,8S,13S,16R)-16-benzyl-8-(4-chlorobenzyl)-1-(2-(4-(2-((dimethylamino)methyl)-1-methyl-1H-imidazol-5-yl)phenoxy)-3-fluorobenzyl)-5-(methoxymethyl)-2,7,13,14-tetramethyl-1,4,7,11,14-pentaazacyclooctadecane-3,6,10,15,18-pentaone]
12 | 54.20% | 8.41 | COC[C@@H]1NC(=O)[C@H](C)N(Cc2ccc(Cl)cc2Oc2ccc(-c3cncc(CN4CCCC4)c3C)cc2)C(=O)C[C@@H](Cc2ccccc2)C(=O)N(C)[C@@H](C)CNC(=O)C[C@H](Cc2ccc(Cl)cc2)N(C)C1=O [Compound 301, (2S,5S,8S,13S,16R)-16-benzyl-1-(4-chloro-2-(4-(4-methyl-5-(pyrrolidin-1-ylmethyl)pyridin-3-yl)phenoxy)benzyl)-8-(4-chlorobenzyl)-5-(methoxymethyl)-2,7,13,14-tetramethyl-1,4,7,11,14-pentaazacyclooctadecane-3,6,10,15,18-pentaone]
13 | 98.16% | 8.51 | COC[C@@H]1NC(=O)[C@H](C)N(Cc2ccccc2Oc2ccc(-c3cnc(CN(C)C)n3C)cc2)C(=O)C[C@@H](Cc2ccccc2)C(=O)N(C)[C@@H](C)CNC(=O)C[C@H](Cc2ccc(Cl)cc2)N(C)C1=O [Compound 9, (2S,5S,8S,13S,16R)-16-benzyl-8-(4-chlorobenzyl)-1-(2-(4-(2-((dimethylamino)methyl)-1-methyl-1H-imidazol-5-yl)phenoxy)benzyl)-5-(methoxymethyl)-2,7,13,14-tetramethyl-1,4,7,11,14-pentaazacyclooctadecane-3,6,10,15,18-pentaone]
